Data from ChEMBL document CHEMBL1201862, “PubChem BioAssay data set” (2004).
“And” between values parts separate entries of the source, which are not always exact repeats. Equal entries are not always repeated.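 Five concentrations, 48 hours, 96-well plates. Here, GI50 denotes the concentration required for 50% inhibition of growth.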 The source made the active and inactive calls. Rule as the data show it: active = GI50 up to about 1.1 µM and inactive = higher. Starred links: 1 amine or outer side, 2 acyl side, 3 side chain; linkers in the order of their positions; H or OH if unused. Positions of bridges follow the written chain, without caps; N, C: chain ends. Non-standard residues stand in square brackets, D forms with d. Residues, ends and D or L forms follow the SMILES beside them. Chains are numbered I, II in the order given. Actinocin(9to1) = Cc1c2oc3c(C)ccc(C(=O)[*:1])c3nc-2c(C(=O)[*:2])c(N)c1=O; NMeT = CN[CH](C(=O)O)[CH](C)O; Sar = CNCC(=O)O

How the values were obtained:
Assay in all cases: NCI tumour cell line growth inhibition, 48 h
[1] = test system: 786-0
[2] = test system: A498
[3] = test system: A549
[4] = test system: ACHN
[5] = test system: CCRF-CEM
[6] = test system: COLO 205
[7] = test system: DU-145
[8] = test system: EKVX
[9] = test system: HCT-116
[10] = test system: HCT-15
[11] = test system: HOP-62
[12] = test system: HT-29
[13] = test system: Hs-578T
[14] = test system: IGROV-1
[15] = test system: K562
[16] = test system: KM12
[17] = test system: LOX IMVI
[18] = test system: M14
[19] = test system: MCF7
[20] = test system: MDA-MB-231
[21] = test system: MDA-MB-435
[22] = test system: MDA-N
[23] = test system: MOLT-4
[24] = test system: Malme-3M
[25] = test system: NCI-H226
[26] = test system: NCI-H23
[27] = test system: NCI/ADR-RES
[28] = test system: OVCAR-3
[29] = test system: OVCAR-4
[30] = test system: OVCAR-5
[31] = test system: OVCAR-8
[32] = test system: PC-3
[33] = test system: RPMI-8226
[34] = test system: SF-268
[35] = test system: SF-295
[36] = test system: SK-MEL-28
[37] = test system: SK-MEL-2
[38] = test system: SK-MEL-5
[39] = test system: SK-OV-3
[40] = test system: SN12C
[41] = test system: SNB-19
[42] = test system: SNB-75
[43] = test system: SR
[44] = test system: SW-620
[45] = test system: TK-10
[46] = test system: U-251
[47] = test system: UACC-257
[48] = test system: UACC-62
[49] = test system: UO-31
[50] = test system: HOP-92
[51] = test system: NCI-H460
[52] = test system: NCI-H522
[53] = test system: RXF 393
[54] = test system: SF-539

SMILES: C=C[C@@H]1OC(=O)O[C@H]1CO
- GI50 [1]: > 100 µM (inactive)
- GI50 [2]: > 100 µM (inactive)
- GI50 [3]: > 100 µM (inactive)
- GI50 [4]: > 100 µM (inactive)
- GI50 [5]: > 100 µM (inactive)
- GI50 [6]: > 100 µM (inactive)
- GI50 [7]: > 100 µM (inactive)
- GI50 [8]: > 100 µM (inactive)
- GI50 [9]: > 100 µM (inactive)
- GI50 [10]: > 100 µM
- GI50 [11]: > 100 µM (inactive)
- GI50 [12]: > 100 µM (inactive)
- GI50 [13]: > 100 µM (inactive)
- GI50 [14]: > 100 µM (inactive)
- GI50 [15]: > 100 µM (inactive)
- GI50 [16]: > 100 µM (inactive)
- GI50 [17]: > 100 µM (inactive)
- GI50 [18]: > 100 µM (inactive)
- GI50 [19]: > 100 µM (inactive)
- GI50 [20]: > 100 µM (inactive)
- GI50 [21]: > 100 µM (inactive)
- GI50 [22]: > 100 µM (inactive)
- GI50 [23]: > 100 µM (inactive)
- GI50 [24]: > 100 µM (inactive)
- GI50 [25]: > 100 µM (inactive)
- GI50 [26]: > 100 µM (inactive)
- GI50 [27]: > 100 µM (inactive)
- GI50 [28]: > 100 µM (inactive)
- GI50 [29]: > 100 µM (inactive)
- GI50 [30]: > 100 µM (inactive)
- GI50 [31]: > 100 µM (inactive)
- GI50 [32]: > 100 µM (inactive)
- GI50 [33]: > 100 µM (inactive)
- GI50 [34]: > 100 µM (inactive)
- GI50 [35]: > 100 µM (inactive)
- GI50 [36]: > 100 µM (inactive)
- GI50 [37]: > 100 µM (inactive)
- GI50 [38]: > 100 µM (inactive)
- GI50 [39]: > 100 µM (inactive)
- GI50 [40]: > 100 µM (inactive)
- GI50 [41]: > 100 µM (inactive)
- GI50 [42]: > 100 µM (inactive)
- GI50 [43]: > 100 µM (inactive)
- GI50 [44]: > 100 µM (inactive)
- GI50 [45]: > 100 µM (inactive)
- GI50 [46]: > 100 µM (inactive)
- GI50 [47]: > 100 µM (inactive)
- GI50 [48]: > 100 µM (inactive)
- GI50 [49]: > 100 µM (inactive)

SMILES: Cc1c2oc3c(C)ccc(C(=O)NC4C(=O)NC(C(C)C)C(=O)N5CCCC5C(=O)N(C)CC(=O)N(C)C(C(C)O)C(=O)OC4C)c3nc-2c(C(=O)NC2C(=O)NC(C(C)C)C(=O)N3CCCC3C(=O)N(C)CC(=O)N(C)C(C(C)O)C(=O)OC2C)c(N)c1=O (stereo unspecified) (I: TVP[Sar][NMeT] / II: TVP[Sar][NMeT]; ester I:1-I:C, II:1-II:C; linker I:N-II:N via Actinocin(9to1); configuration not given here)
- GI50 [4]: 1.69 µM (inactive)
- GI50 [5]: 1.59 µM (inactive) and 957 nM (active)
- GI50 [9]: 556 nM (active) and 472 nM (active)
- GI50 [11]: 1.18 µM (inactive) and 792 nM (active)
- GI50 [50]: > 1 µM (active) and 1.9 µM (inactive)
- GI50 [13]: 1.46 µM (inactive)
- GI50 [14]: 512 nM (active) and 914 nM (active)
- GI50 [15]: 0.586 µM (active)
- GI50 [17]: 565 nM (active) and 557 nM (active)
- GI50 [19]: 445 nM (active) and 671 nM (active)
- GI50 [22]: 1.68 µM (inactive)
- GI50 [23]: > 1 µM (active) and 875 nM (active)
- GI50 [26]: > 1 µM (active) and 1.41 µM (inactive)
- GI50 [51]: 470 nM (active) and 401 nM (active)
- GI50 [52]: 173 nM (active) and 255 nM (active)
- GI50 [31]: 1.1 µM (active)
- GI50 [33]: 0.773 µM (active)
- GI50 [53]: 453 nM (active) and 820 nM (active)
- GI50 [34]: > 1 µM (active) and 1.63 µM (inactive)
- GI50 [54]: 518 nM (active) and 533 nM (active)
- GI50 [36]: 583 nM (active) and 769 nM (active)
- GI50 [37]: 0.719 µM (active)
- GI50 [40]: > 1 µM (active) and 1.26 µM (inactive)
- GI50 [42]: 313 nM (active) and 186 nM (active)
- GI50 [44]: > 1 µM (active) and 834 nM (active)
- GI50 [46]: 495 nM (active) and 369 nM (active)
- GI50 [48]: 0.478 µM (active)
